Columns and labels:
[1] = system: A549 human lung carcinoma cells; assay: MTT assay on A549 cells; format: cell-based; details: A549, 72 h
Protocol: (§1) A549, NCI-H460, NCI-H1975 lung cancer cells and WI-26 VA4 lung epithelial-like cells were purchased from the ATCC. A549 cells were maintained in F12-K (Corning, NY, USA) supplemented with 10% fetal bovine serum (Fetal Bovine Serum, qualified, Australia; Gibco, Loughborough, UK), penicillin (100 UI mL^−1), streptomycin (100 µg mL^−1), and GlutaMax (1.9 mM, Gibco, UK). NCI-H460 and NCI-H1975 cells were maintained in RPMI-1640 (ATCC modification) media (Gibco, Loughborough, UK) supplemented with 10% fetal bovine serum (Fetal Bovine Serum, qualified, Australia; Gibco, Loughborough, UK), penicillin (100 UI mL^−1), streptomycin (100 µg mL^−1), and GlutaMax (2 mM, Gibco, UK). WI-26 VA4 cells were maintained in Advanced MEM (Gibco, Loughborough, UK) supplemented with 5% fetal bovine serum (Fetal Bovine Serum, qualified, Australia, Gibco, UK), penicillin (100 UI mL^−1), streptomycin (100 µg mL^−1), and GlutaMax (1.87 mM, Gibco, Loughborough, UK). All cells line cultivation under a humidified atmosphere of 95% air/5% CO2 at 37 °C. Subconfluent monolayers, in the log growth phase, were harvested by a brief treatment with TrypLE Express solution (Gibco, Loughborough, UK) in phosphate buffered saline (PBS, Capricorn Scientific, Germany) and washed three times in serum-free PBS. The number of viable cells was determined by trypan blue exclusion.
(§2) The effects of the synthesized compounds on cell viability were determined using the MTT colorimetric test. All examined cells were diluted with the growth medium to 3.5 × 10^4 cells per mL and the aliquots (7 × 10^3 cells per 200 μL) were placed in individual wells in 96-well plates (Eppendorf, Hamburg, Germany) and incubated for 24 h. The next day, the cells were treated with synthesized compounds separately in concentration 10 and 100 μM (or 200.0 μM concentration and diluted at various concentrations for determination of IC50) and incubated for 72 h at 37 °C in 5% CO2 atmosphere. Each compound was tested in triplicate. After incubation, the cells were treated with 40 μL MTT solution (3-(4,5-dimethylthiazol-2-yl)-2,5-diphenyltetrazolium bromide, 5 mg mL^−1 in PBS) and incubated for 4 h. After additional 4-h incubation, the medium with MTT was removed and DMSO (150 μL) was added to dissolve the formazan crystals. The plates were shaken for 10 min. The optical density of each well was determined at 560 nm using GloMax Multi+ (Promega, Madison, WI, USA) microplate reader. Each of the tested compounds was evaluated for cytotoxicity in three separate experiments. All stock solutions for biological evaluations were prepared via dissolving synthesized compounds in DMSO.

[2] = system: NCI-H460 non-small cell lung carcinoma cells; assay: MTT assay on NCI-H460 cells; format: cell-based, human; details: NCI-H460, 72 h
Protocol: as §1, §2

[3] = system: EGFR-mutant NCI-H1975 non-small cell lung carcinoma cells; assay: MTT assay on NCI-H1975 cells; format: cell-based, human; details: for IC50: NCI-H1975, 72 h, MTT
Protocol: as §1, §2

[4] = system: non-cancerous lung fibroblast WI-26 VA4; assay: MTT assay on WI-26 VA4 cells (non-specific cytotoxicity); format: cell-based, human; details: WI-26 VA4, 72 h
Protocol: as §1, §2

[5] = MTT assay on A549 cells; format: cell-based, human; details: human, A549 lung carcinoma cells, 72 h, read-out: Cell Viability, %; for viability at 72 h, 10 µM: A549, 10 µM; for viability at 72 h, 100 µM: A549, 100 µM
Protocol: as §1, §2

[6] = Molar conductivity in DMSO solution; format: physicochemical; details: DMSO solutions, 25 °C
Protocol: The preparation and characterization of starting pyridine-N-oxides as well as U1–12 are described previously. CuCl2, other reactants, and solvents were obtained from commercial sources. High-resolution mass-spectra (HRMS) were measured on Bruker Maxis HRMS-ESI-qTOF (Electrospray Ionization, ESI; Bruker, Billerica, MA, USA); a MeOH was used as the solvent. The instrument was operated at positive ion mode using m/z range of 50–3000. The capillary voltage of the ion source was set at –4500 V (ESI^+) and the capillary exit at +(70–150) V. The nebulizer gas pressure was 0.4 bar and drying gas flow was 4.0 L/min. The most intensive peak in the isotopic pattern is reported. Infrared spectra (4000–400 cm^–1) were recorded on a Shimadzu FTIR 8400S (Shimadzu, Kyoto, Japan) instrument in KBr pellets. The C, H, and N elemental analyses were carried out on a Leco TruSpec Micro CHNS analyzer (LECO, St. Joseph, MI, USA). TGA was performed on a ca. 2 mg samples of Cu(II) complexes by using a Netzsch TG 209 F1 Libra thermal analyzer (Netzsch, Selb, Germany). The samples were dried under a vacuum at 50 °C before heating from 40 to 450 °C at a heating rate of 10 K min^–1. A flow rate of 10 mL min^–1 of dry argon was used to purge the samples. Molar conductivity was measured with an Elico digital conductivity bridge model CM-88, using a freshly prepared DMSO solution of the complexes.

[7] = system: NCI-H1975 cells; assay: Cell cycle analysis by flow cytometry; format: cell-based, human; details: NCI-H1975, 10, 20, and 35 μM, 48 h
Protocol: For the cell cycle analysis, the cells (1 × 10^6 per well) were placed at 6-well culture plates (Eppendorf, Germany) and allowed to grow overnight. After the medium was replaced with solution tested compounds (10, 20, or 35 μM). The exposed cells were placed at 37 °C in a 5% CO2 incubator for 48 h. After the completion of incubations, cells were harvested by trypsinization, washed with PBS, centrifuged, fixed with 70% ethanol and incubated for 7 h at –20 °C. An aliquot of the pellet (200 µL) was washed with PBS, stained with 200 µL of the Guava Cell Cycle Reagent (Merck, Kenilworth, NJ, USA), and incubated for 30 min at room temperature in the dark. The cell cycle distribution was analyzed by flow cytometry on a CytoFlex (Beckham Coulter, Brea, CA, USA) and CytExpert 2.1 program.

[8] = system: NCI-H1975 cells; assay: Annexin V-FITC/PI double staining apoptosis assay; format: cell-based, human; details: NCI-H1975, 50 μM, 48-h incubation
Protocol: For the detection of apoptosis, the cells were placed at 6-well culture plates (Eppendorf, Germany) and allowed to grow overnight. After the cells reached subconfluency, the medium was replaced with tested compounds (25 or 50 μM). The exposed cells were placed at 37 °C in a 5% CO2 incubator for 24 or 48 h. The cultured cells were washed twice with PBS and resuspended in 1× binding buffer (AnnexinV-FITC kit, Invitrogen, Waltham, MA, USA) at a concentration 1 × 10^6 mL^−1. Annexin FITC (5 μL) and propidium iodide (PI, 2 μL) were added to 100 μL of the cell suspension and incubated for 15 min at room temperature (25 °C) in the dark. After incubation, 400 μL of 1× binding buffer was added to each tube and the stained cells were analyzed within 1 h using CytoFlex (Beckman Coulter, Brea, CA, USA) and CytExpert 2.1 program. Since the AnnexinV-FITC staining precedes the loss of membrane integrity that accompanies the later stage identified by PI, Annexin FITC positive, PI negative indicates early apoptosis, while the viable cells are Annexin V FITC negative, PI negative. The cells that are in late apoptosis or dead are both Annexin V FITC and PI positive.

IC50 [1] [µM] | IC50 [2] [µM] | IC50 [3] [µM] | Compound | IC50 [4] [µM] | viability at 72 h, 10 µM [5] [%] | viability at 72 h, 100 µM [5] [%] | further results
107 ± 15.1 | 120 ± 18.4 | 65.3 ± 10.9 | CN(C)C(=O)Nc1ccccn1.CN(C)C(=O)Nc1ccccn1.[Cl-].[Cl-].[Cu+2] [[Cu(U1)2Cl]^+[Cl]^−] | 108 ± 27.5 |  |  | 
 |  |  | Cc1ccnc(NC(=O)N(C)C)c1 [Complex U2] |  | 102 ± 2.7 | 98.7 ± 3.8 | 
 |  |  | Cc1ccnc(NC(=O)N2CCOCC2)c1 [Complex U12] |  | 97.4 ± 5.5 | 85.4 ± 7.8 | 
89.3 ± 6.67 | 128 ± 19.5 | 70.2 ± 4.9 | Cc1ccnc(NC(=O)N2CCOCC2)c1.Cc1ccnc(NC(=O)N2CCOCC2)c1.[Cl-].[Cl-].[Cu+2] [[Cu(U12)2Cl]^+[Cl]^−] | 109 ± 13.7 |  |  | 
46 ± 4.98 | 53.6 ± 4.7 | 33.4 ± 3.8 | O=C(Nc1cc([N+](=O)[O-])ccn1)N1CCCCC1.O=C(Nc1cc([N+](=O)[O-])ccn1)N1CCCCC1.[Cl-].[Cl-].[Cu+2] [[Cu(U11)2Cl2]] | 62.4 ± 5.6 |  |  | Molar conductivity [6]: 21.7 Ω^−1·cm^2·mol^−1
 |  |  | O=C(Nc1ccccn1)N1CCCCC1 [Complex U8] |  | 100 ± 9.4 | 97.2 ± 6.1 | 
61.4 ± 6.52 | 77.5 ± 6.4 | 39.6 ± 4.5 | CN(C)C(=O)Nc1cc([N+](=O)[O-])ccn1.CN(C)C(=O)Nc1cc([N+](=O)[O-])ccn1.[Cl-].[Cl-].[Cu+2] [[Cu(U3)2Cl2]] | 81.6 ± 10.1 |  |  | selectivity over the healthy human cells WI-26 VA4 ([3]; NCI-H1975 vs WI-26 VA4): the most selective; cells trapped in the G2 phase [7]: profound increase; number of cells in the G1 phase [7]: remarkable drop; percentage of dead cells ([8]; control 0.28%): 2.87%; percent of Annexin V FITC-positive early apoptotic cells ([8]; control 5.25%): 16.30%; late apoptotic fraction in cell population ([8]; control 12.02%): 22.38%; Molar conductivity [6]: 24.1 Ω^−1·cm^2·mol^−1
88.7 ± 12.7 | 115 ± 26.3 | 63.8 ± 8.7 | Cc1nnc(-c2ccnc(NC(=O)N(C)C)c2)o1.Cc1nnc(-c2ccnc(NC(=O)N(C)C)c2)o1.[Cl-].[Cl-].[Cu+2] [[Cu(U6)2Cl]^+[Cl]^−] | 105 ± 14.1 |  |  | 
 |  |  | O=C(Nc1ccccn1)N1CCCC1 [Complex U7] |  | 103 ± 2.8 | 99.8 ± 5.7 | 
106 ± 12.2 | 118 ± 13.4 | 68.3 ± 8.5 | CN(C)C(=O)Nc1cc(C#N)ccn1.CN(C)C(=O)Nc1cc(C#N)ccn1.[Cl-].[Cl-].[Cu+2] [[Cu(U4)2Cl]^+[Cl]^−] | 109 ± 16.4 |  |  | Molar conductivity [6]: 25.2 Ω^−1·cm^2·mol^−1
 |  |  | CN(C)C(=O)Nc1cc(C#N)ccn1 [Complex U4] |  | 94.2 ± 6.7 | 89 ± 5.1 | 
 |  |  | Cc1ccnc(NC(=O)N2CCCCC2)c1 [Complex U9] |  | 103 ± 6.3 | 98.3 ± 8.1 | 
114 ± 14.5 | 136 ± 12.5 | 71.2 ± 6.9 | Cc1nc(-c2ccnc(NC(=O)N(C)C)c2)no1.Cc1nc(-c2ccnc(NC(=O)N(C)C)c2)no1.[Cl-].[Cl-].[Cu+2] [[Cu(U5)2Cl]^+[Cl]^−] | 118 ± 24.9 |  |  | 
102 ± 15.8 | 103 ± 13.1 | 66.7 ± 7.6 | O=C(Nc1ccccn1)N1CCCC1.O=C(Nc1ccccn1)N1CCCC1.[Cl-].[Cl-].[Cu+2] [[Cu(U7)2Cl]^+[Cl]^−] | 100 ± 16.6 |  |  | 
 |  |  | Cc1nnc(-c2ccnc(NC(=O)N(C)C)c2)o1 [Complex U6] |  | 94.5 ± 7.1 | 89.9 ± 2.4 | 
94.5 ± 14.1 | 122 ± 15.3 | 65.4 ± 8.6 | Cc1ccnc(NC(=O)N(C)C)c1.Cc1ccnc(NC(=O)N(C)C)c1.[Cl-].[Cl-].[Cu+2] [[Cu(U2)2Cl]^+[Cl]^−] | 101 ± 15.1 |  |  | Molar conductivity [6]: 24.8 Ω^−1·cm^2·mol^−1
 |  |  | CN(C)C(=O)Nc1cc([N+](=O)[O-])ccn1 [Complex U3] |  | 95.5 ± 3.3 | 91.6 ± 4.3 | 
 |  |  | Cc1nc(-c2ccnc(NC(=O)N(C)C)c2)no1 [Complex U5] |  | 101 ± 5.5 | 90.2 ± 8.7 | 
 |  |  | COc1ccnc(NC(=O)N2CCCCC2)c1 [Complex U10] |  | 102 ± 5.2 | 99.5 ± 8.1 | 
98.4 ± 11.1 | 102 ± 17.3 | 64.4 ± 10.5 | O=C(Nc1ccccn1)N1CCCCC1.O=C(Nc1ccccn1)N1CCCCC1.[Cl-].[Cl-].[Cu+2] [[Cu(U8)2Cl]^+[Cl]^−] | 111 ± 19.3 |  |  | 
 |  |  | CN(C)C(=O)Nc1ccccn1 [Complex U1] |  | 100 ± 18 | 86.5 ± 7.5 | 
 |  |  | O=C(Nc1cc([N+](=O)[O-])ccn1)N1CCCCC1 [Complex U11] |  | 105 ± 6.7 | 94.3 ± 9 | 

Compound | IC50 [1] [µM] | IC50 [2] [µM] | IC50 [3] [µM] | IC50 [4] [µM] | viability at 72 h, 10 µM [5] [%] | viability at 72 h, 100 µM [5] [%] | further results
Cc1ccnc(NC(=O)N2CCCCC2)c1.Cc1ccnc(NC(=O)N2CCCCC2)c1.[Cl-].[Cl-].[Cu+2] [[Cu(U9)2Cl]^+[Cl]^−] | 76.1 ± 8.86 | 66.4 ± 5.7 | 61.6 ± 6 | 113 ± 23.5 |  |  | 

Source: article PMC8962293, “Synthesis, Structure, and Antiproliferative Action of 2-Pyridyl Urea-Based Cu(II) Complexes” (Biomedicines, 2022)
